{"source": "patent US20180051284A1", "about": "“INHIBITORS OF MIR-17-92 CLUSTER FOR ANTI-TUMOR ACTIVITY IN MULTIPLE MYELOMA AND OTHER MALIGNANCIES” (priority 2014, published 2018)", "key": {"[1]": {"test_system": "miR-17-92 primary transcript (pri-miRs) and mature miR-17-92 cluster members", "assay": "q-RT-PCR of miR-17-92 member family and two pri-miRs after transfection of MM cells", "assay_type": "cell-based, Human", "conditions": "48 hours after transfection with 25 nM; NCI-H929 and RPMI-8226 cells; relative to RNase-free water", "description": "3×10^5 cells were transfected using Neon Transfection System (Invitrogen, Calif.,U.S.), (2 pulses at 1150, 30ms). The transfection efficiency evaluated by flow-cytometric analysis relative to a FAM dye—labeled anti-miR—negative control reached 85% to 90%.\nReverse transcription (RT) of both primary and mature miRNAs was performed using TaqMan® MicroRNA Assays, following a procedure for multiplexing the RT step (Life Technologies, Publication Part Number 4465407). Briefly, 500 ng of total RNA, prepared with the TRIzol® Reagent (Invitrogen), underwent reverse transcription by the Taq-Man® MicroRNA RT Kit. In this reaction, the RT primer pool was composed by the individual RT primers for each microRNA belonging to the miR-17-92 cluster and two RT primers to allow the reverse transcription of the miR-17-92 primary miRNA. Real-time PCR was performed using TaqMan® MicroRNA Assays together with the TaqMan® Universal PCR Master Mix on an ViiA7 System (Life Technologies). Both primary and mature microRNAs expressions were relatively quantified using the 2-ΔΔCt method (Applied Biosystems User Bulletin No. 2), and expressed as the relative quantity of target miRNA normalized to the RNU44 (assay ID 001094) housekeeping gene. Comparative real-time polymerase chain reaction (RT-PCR) was performed in triplicate, including no-template controls. Relative expression was calculated using the comparative cross threshold (Ct) method.\nBy the use of a custom q-RT-PCR plate specifically designed by us to detect all six mature miR-17-92 members and the primary transcript by two different assays (pri-mir-17/18a/19a and pri-mir-19b1/20a/92a1), we quantified in a panel of 11 MM cell lines the levels of the different miRNAs and pri-miRs."}, "AMO1/abzb xenografts": {"test_system": "AMO1/abzb xenografts", "assay": "In vivo tumor growth of Bortezomib-refractory AMO1/abzb xenografts (IVIS)", "parameters": "species or system mice", "conditions": "I.P. Bortezomib 1 mg/kg; Bortezomib-refractory model", "excerpt": "Male CB-17 severe combined immunodeficient (SCID) mice (6- to 8-weeks old; Harlan Laboratories, Inc., Indianapolis) were housed and monitored in our Animal Research Facility. All experimental procedures and protocols had been approved by the Institutional Ethical Committee (Magna Graecia University) and conducted according to protocols approved by the National Directorate of Veterinary Services (Italy). In accordance with institutional guidelines, mice were sacrificed when tumors reached 2 cm in diameter or in the event of paralysis or major compromise, to prevent unnecessary suffering. Animal experimental procedures have been performed as in previous reports (Di Martino et al, CCR 2012; Di Martino el al. Oncotarget 2013, Di Martino et al PlosOne 2014). […] Mice were also inoculated with 5×10^6 luciferase gene-marked U266, AMO-1, AMO-1/abzb, treatments were performed intraperitoneally (i.p.), and tumor volume were measured by IVIS Lumina II.\nIn vivo anti-MM activity of LNA gapmer_06 was next evaluated in NOD/SCID mice bearing subcutaneous AMO1 xenografts. […] Tumors volume were measured using IVIS LUMINA II Imaging We next evaluate the in vivo activity in Bortezomib-refractory model of human MM. […] Tumors volume were measured using IVIS LUMINA II Imaging System."}}, "note": "l = locked nucleic acid (LNA); d = 2'-deoxy (DNA)", "data": [{"compound": "gapmer_15: LNA/DNA gapmer, SEQ ID 7 (16 mer): +A*+G*+C*A*C*T*C*A*A*C*A*T*C*+A*+G*+C (AGCACTCAACATCAGC; sugars from the 5' end l3 d10 l3, all phosphorothioate, methylation of C not given here)", "values": [{"measurement": "downregulation of primary and mature miRNA sequences (q-RT-PCR)", "setting": "[1]", "result": "strongest downregulation of primary transcripts and miR-17-92 mature members"}]}, {"compound": "CC(C)C[C@H](NC(=O)[C@H](Cc1ccccc1)NC(=O)c1cnccn1)B(O)O", "note": "[Bortezomib, reference compound]", "values": [{"measurement": "tumor growth (IVIS tumor volume)", "setting": "AMO1/abzb xenografts", "result": "no effect on tumor-growth"}]}]}
